Source: US10793601B2, “Therapeutic spalt-like transcription factor 4 (SALL4) peptide” (National University of Singapore, priority 2016, dated 2020)
“And” between values parts separate entries of the source, which are not always exact repeats. Identical values can stand only once. One block for each molecule: values may come before it. Ends that are not written are not given here.

What was measured:
[1] = target: T1, RBBp4 (Homo sapiens, UniProt Q09028); assay: Fluorescence polarization (FP) competition with FITC-labelled SALL4 WT peptide; type: binding; conditions: for IC50: displacement of FITC-SALL4 WT peptide from RBBp4
T1 construct: purchased SinoBiological
Experimental: (§1) FIGS. 3A-3E. Key residues involved in SALL4 (1-12)-RBBp4 binding. […] The difference in the binding free energy (ΔΔGbind) of the alanine mutants (ΔGmutant, Ala7 was mutated to glycine) and wild type (ΔGwild type) was calculated (ΔΔGbind=ΔGmutant−ΔGwild type). ΔΔGbind was tabulated (left) and plotted in a bar chart (right). […] Mutated residues are highlighted in red. The IC50 of each peptide, including WT, was determined by Fluorescence Polarization (FP). Different concentrations of each peptide were titrated into a mixture of 0.04 μM RBBp4 and 0.01 μM of C-labelled FITC-SALL4 WT peptide. Polarization was measured in mP. […] Pep-1 carrier was added to the peptide to facilitate cellular penetration of the peptides.
Peptides were titrated into a master mix of 0.045 μM RBBp4 and […] C-terminal FITC-labelled WT peptide (synthesized by Thermo Scientific). Reactions were incubated at room temperature before the plate was read with an Envision instrument (Perkin Elmer). IC50 values of peptides were determined using Prism (GraphPad).

[2] = test system: PLC8024 tumor xenografts; assay: PLC8024 xenograft (Sorafenib-resistant HCC); type: in vivo, mice
Experimental: (§2) FIGS. 9A-9E. Clinical significance of PEN-FFW compared to Sorafenib. FIG. 9A: PEN-FFW treated SNU398 tumor xenografts were compared to that of Sorafenib treated xenografts. FIG. 9B: PEN-FFW treated PLC8024 tumor xenografts were compared to that of Sorafenib treated xenografts. Mice body weight was measured to access toxicity of various peptides. FIG. 9C: Body weight of mice at day 17. FIG. 9D: Differences of body weight compared to day 0 (As indicated by the arrow in far left of FIG. 7A). FIG. 9E: Body weight of mice at day 19th in the experiment shown in FIG. 9A comparing effect of Sorafenib and PEN-FFW. Data represent mean±s.d. (n=5).
Clinical significance of PEN-FFW was studied in vivo by benchmarking against current therapy using Sorafenib. PEN-FFW treated SNU398 tumor xenografts were compared to that of Sorafenib treated xenografts (FIG. 9A). […] Potential therapeutic effect of PEN-FFW in HCC patients that are refractory to Sorafenib treatment was studied also studied in vivo. using a HCC cell line, PLC8024 which is SALL4 positive, CD133+ and is both chemo- and radio-resistant (Li et al., BMC Cancer 2016, 16, 15; Ma et al., Oncogene 2008, 27: 1749-1758), for the xenograft study.

[3] = test system: SNU398 tumor xenografts; assay: SNU398 xenograft in NSG mice; type: in vivo, NOD/SCID/gamma mice; conditions: for effect on tumor growth: SNU398 xenograft, tumor volume against time; for tumor weight: mean, tumors resected on day 20, five i.p. injections
Experimental: FIGS. 7A-7E. […] FIG. 7A: 7.2×10^5 SNU398 cells were inoculated subcutaneously into the right flank of NOD/SCID/gamma mice (NSG mice). Tumors were allowed to grow for one week before peptide treatments were administered every alternate day for a total of five injections. FIG. 7B: Tumor growth was documented by plotting tumor volume against time. […] FIG. 7C: Relative size of tumors resected on day 20. FIG. 7D: tumor weight was determined (n=5). […] FIG. 7E: Total RNA was isolated from the resected tumors and expression of PTEN was measured using real-time PCR.
as §2, with “Clinical significance of PEN-FFW compared to Sorafenib.” left out
All mice were treated in accordance with Responsible Care and Use of Laboratory animals. In the SNU398 in vivo studies, 6-8-week-old female C.B-17 severe combined immunodeficient (SCID) mice (NSG) were inoculated s.c. into the flank with 7.2×10^5 cells in 2:1 PBS/Matrigel (BD Biosciences). The tumours were then allowed to develop to the size of 50-70 mm3 before intraperitoneal injections of the different peptides were given at two to three-day intervals for a total of 5 injections. Mice were randomly grouped in sets of six and treated with PEN (penetratin control), PEN-MUT (mutant control), PEN-WT (wild type control) and PEN-FFW (peptide 47). Tumor volumes were measured every 5 days and tumor weight were measured at the end point. For PEN control, 22.5 mg/kg were given; for PEN-MUT, PEN-WT and PEN-FFW, 35.6 mg/kg, 37 mg/kg and 36 mg/kg were given respectively to the mice according to their body weight Tumor measurements were taken twice weekly using Vernier calipers. Tumor volume was estimated using the following formula: V=0.5×width×width×length. When tumors approached ˜50 mm3, mice were randomized into groups of 5 animals each and received peptides treatment three times weekly by i.p. injection. All statistical analysis was done using a one-way ANOVA and Student's T-test.

[4] = test system: SNU398 cells; assay: Cell viability assay in SNU398 cells; type: cell-based; conditions: for EC50: 72 h; for effect on cell number: SNU398, Pep-1 carrier added
Experimental: as §1
FIGS. 5A-5B. Development of a potent therapeutic peptide FFW.
SNU398 was grown in RPMI supplemented with 10% fetal bovine serum (FBS) at 37° C. in a humidified atmosphere of 5% CO2. 3000 cells were seeded in each well of a 96 well plate with 100 μL of medium. Before peptide treatment, cells were washed twice with PBS and treated with different concentrations of peptide in OPTIMEM (LifeTech). Media was added after 4 hrs of incubation at 37° C., and cells incubated for another 68 hrs. Tetrazolium (CellTiter96 AQueous One Solution Cell Proliferation Assay, Promega) was added after 72 hrs incubation with the peptides, and the plate was read at a plate reader at 490 nm after 1 hr of incubation in the dark at 37° C.

[5] = test system: SNU398; assay: RNA-seq transcriptome analysis of treated SNU398; type: cell-based; conditions: for log2 fd versus Contr (PEN + Mut), ADORA2A-AS1: gene ADORA2A-AS1, SNU398, 8 hrs; for log2 fd versus Contr (PEN + Mut), AVPR2: gene AVPR2, SNU398, 8 hrs; for log2 fd versus Contr (PEN + Mut), CSAD: gene CSAD; for log2 fd versus Contr (PEN + Mut), CSAD / log2 fd versus Contr (PEN + Mut), SSPO: SNU398, 8 hrs; for log2 fd versus Contr (PEN + Mut), DNASE1L2: gene DNASE1L2, SNU398, 8 hrs; for log2 fd versus Contr (PEN + Mut), LOC619207: gene LOC619207, SNU398, 8 hrs; for log2 fd versus Contr (PEN + Mut), NEIL1: gene NEIL1, SNU398, 8 hrs; for log2 fd versus Contr (PEN + Mut), PRKXP1: gene PRKXP1, SNU398, 8 hrs; for log2 fd versus Contr (PEN + Mut), SSPO: gene SSPO
Experimental: SNU398 were treated PEN, PEN-MUT, PEN-WT & PEN-FFW for 8 hrs and paired-end RNA-seq was performed for the treated samples. RNA-seq reads of each sample were mapped to hg19 using the STAR aligner. Normalization between the samples was based on the proportionality of the numbers of the mapped reads. The expression fold change of a transcript was obtained using linear regression of the reads between the two samples cross all exons. Differential expression between two samples was selected by using the fold change cut off of 2. Hierarchical clustering was performed based on average linkage to generate the clustering tree as well as heat maps. For identification of enriched gene sets or pathways, Gene Set Enrichment Analysis (GSEA) was performed based on the normalized data and using the GSEA tool (broad.mit.edu/gsea/) with msigdb.v5.0.

[6] = Plasma stability by LC-MS/MS
Experimental: PEN-FFW was incubated with human plasma (pH7.4) at 37° C. over a 24 hour period (5 timepoints). Incubations were performed at a concentration of 1 μM (final DMSO concentration 2.5%). Reactions were terminated at 0, 5, 10, 15, 30 min, or 0, 1, 2, 4 and 24 hour, by addition of 2 volumes of methanol containing 1% Formic acid. The samples were centrifuged (2500 rpm, 45 min, 4° C.) and the supernatants diluted with 2 volumes of 0.2% Formic acid (aq) (containing Metoprolol (internal standard)). […] The percentage of parent peptide remaining at each time point relative to the 0 min sample was calculated from LC-MS/MS peak area ratios (compound peak area/internal standard peak area).

[7] = test system: PTEN; assay: PTEN transcript level by quantitative real-time PCR in SNU398 cells; type: cell-based; conditions: Q-PCR
[8] = target: T1, RBBp4; assay: Surface plasmon resonance (SPR), RBBp4 immobilised on CM5 chip; type: binding
Experimental: (§3) FIGS. 1A-1B. Binding affinity of WT SALL4 (1-12 aa) to RBBp4.
SPR studies were performed using a Biacore T200 biosensor (GE Healthsciences). ˜12,000 resonance units (RU) of RBBp4 were immobilised by amine coupling to the carboxymethylated dextran matrix of a Series S CM5 chip (Biacore, GE Healthcare). Multi cycle kinetics analysis was performed at 25° C. through seven injections of SALL4 peptide (0.5 μM-8 μM). The association time and flow rate were set at 60 s and 30 μl/min respectively. The sensograms obtained were of good quality and kinetic rate constants were determined by curve fitting.

[9] = target: T1, RBBp4; assay: Isothermal titration calorimetry (ITC) of SALL4 peptide against RBBp4; conditions: 25° C., 1:1 binding model
Experimental: as §3
ITC was carried out with an Auto-iTC200 instrument from Microcal Inc. at 25° C. […] of RBBp4 in 50 mM Tris and 100 mM NaCl at pH 7.4 was loaded into the ITC cell. Sal14 peptide at […] was auto-loaded into the syringe. The titration was carried out with 18 injections of 2.4 μl, performed over a period of 30 min with stirring at 1000 rpm. The ITC data was analysed using Origin software from Microcal.

T1 sequence (Q09028 whole entry): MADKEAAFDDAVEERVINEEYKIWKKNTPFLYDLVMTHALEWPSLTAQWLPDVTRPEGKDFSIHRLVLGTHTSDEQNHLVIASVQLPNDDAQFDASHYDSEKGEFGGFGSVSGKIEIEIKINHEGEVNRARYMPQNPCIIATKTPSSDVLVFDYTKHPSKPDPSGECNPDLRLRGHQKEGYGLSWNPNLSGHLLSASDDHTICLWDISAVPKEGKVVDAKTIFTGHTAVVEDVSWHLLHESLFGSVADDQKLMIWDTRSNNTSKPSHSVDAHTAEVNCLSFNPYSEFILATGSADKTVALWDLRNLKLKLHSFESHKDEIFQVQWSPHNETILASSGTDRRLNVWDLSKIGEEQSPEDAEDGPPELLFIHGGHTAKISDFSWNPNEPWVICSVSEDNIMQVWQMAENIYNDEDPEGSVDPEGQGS

- IC50 [1]: 4400 ± 1100 nM
Molecule: Ac-RRKQAKLQHI-NH2 [Peptide 33]

- EC50 [4]: 30000 nM
Molecule: RQIKIWFQNRRMKWKKMSRRKQAKPQHI [PEN-WT]
- effect on tumor growth [3]: markedly impaired tumor growth
- tumor weight [3]: 563.46 mg and 564 mg

- IC50 [1]: 460 ± 200 nM
Molecule: Ac-RRKQAKPQHA-NH2 [Peptide 16]

- EC50 [4]: > 100000 nM
Molecule: RQIKIWFQNRRMKWKKMSARAQAKPQHI [PEN-MUT]
- effect on tumor growth [3]: neither peptide was able to inhibit tumor growth
- tumor weight [3]: 1273.46 mg

- IC50 [1]: > 20000 nM
Molecule: Ac-RRAQAKPQHI-NH2 [Peptide 10]

- peptide/compound remaining in the plasma ([6]; human plasma, 37° C., 1 μM, after 30 min): 40%
- remaining at 0.5 h, 1 μM ([6]; human, pH 7.4): 40%
Molecule: CC1CC(OC(=O)C(O)c2ccccc2)CC(C)(C)N1C (centres unmarked) [Eucatropine]

- IC50 [1]: 360 nM
Molecule: Ac-RRRQAKPQHI-NH2 [Peptide 6]

- IC50 [1]: 270 ± 100 nM
Molecule: Ac-RRKLAKPQHI-NH2 [Peptide 23]

- IC50 [1]: 120 ± 10 nM
Molecule: Ac-RRKQAKPAHI-NH2 [Peptide 14]

- IC50 [1]: > 20000 nM
Molecule: Ac-ARKQAKPQHI-NH2 [Peptide 8]

- IC50 [1]: 3800 ± 500 nM
Molecule: Ac-KRKQAKPQHI-NH2 [Peptide 17]

More lines, now with the values behind:

Molecule: Ac-RRKQAKFQHI-NH2 [Peptide 34]
- IC50 [1]: 170 nM

Molecule: CNC(=O)c1cc(Oc2ccc(NC(=O)Nc3ccc(Cl)c(C(F)(F)F)c3)cc2)ccn1 [Sorafenib, reference compound]
- tumor growth as compared to the control group [2]: 1.5 fold

Molecule: Ac-RRKFAKPQHI-NH2 [Peptide 24]
- enhancement in binding affinity over that of peptide 6 ([1]; ratio of FP IC50 values): 7 fold

Molecule: Ac-RAKQAKPQHI-NH2 [Peptide 9]
- IC50 [1]: > 20000 nM

Molecule: Ac-RKQAKPQHI-NH2 [Peptide 7]
- IC50 [1]: > 20000 nM

Molecule: Ac-RRKQAKPQWI-NH2 [Peptide 41]
- IC50 [1]: 120 nM
- enhancement in binding affinity over that of peptide 6 ([1]; ratio of FP IC50 values): 3 fold

Molecule: Ac-RRKFAKFQWI-NH2 [Peptide 46]
- IC50 [1]: 23 nM
- increase in affinity as compared with the original 12-residue WT peptide ([1]; ratio of FP IC50 values): > 56 fold
- log2 fd versus Contr (PEN + Mut), ADORA2A-AS1 [5]: 2.17
- log2 fd versus Contr (PEN + Mut), AVPR2 [5]: 1.53
- log2 fd versus Contr (PEN + Mut), CSAD [5]: 1.09
- log2 fd versus Contr (PEN + Mut), DNASE1L2 [5]: 1.11
- log2 fd versus Contr (PEN + Mut), LOC619207 [5]: 1.33
- log2 fd versus Contr (PEN + Mut), NEIL1 [5]: 1.11
- log2 fd versus Contr (PEN + Mut), PRKXP1 [5]: 2.12
- log2 fd versus Contr (PEN + Mut), SSPO [5]: 2.40

Molecule: RQIKIWFQNRRMKWKK [PEN]
- effect on tumor growth [3]: neither peptide was able to inhibit tumor growth
- tumor weight [3]: 1550.78 mg

Molecule: Ac-RRKQRKPQHI-NH2 [Peptide 26]
- IC50 [1]: 460 ± 100 nM

Molecule: Ac-RRKQAKPLHI-NH2 [Peptide 38]
- IC50 [1]: 460 ± 100 nM

Molecule: Ac-RRKQAKAQHI-NH2 [Peptide 13]
- IC50 [1]: 270 ± 30 nM

Molecule: Ac-MSRRKQAKPQHI-NH2 [Peptide 1, reference compound]
- increase in PTEN expression compared to untreated cells [7]: 3 fold
- koff [8]: 0.026 ± 0.00045 s⁻¹
- kon [8]: 16800 ± 460 M⁻¹ s⁻¹
- effect on cell number [4]: exerts an inhibitory effect on cell number
- IC50 [1]: 1040 ± 200 nM
- Kd [9]: 1040 ± 60 nM
- log2 fd versus Contr (PEN + Mut), ADORA2A-AS1 [5]: 1.05
- log2 fd versus Contr (PEN + Mut), AVPR2 [5]: 0.11
- log2 fd versus Contr (PEN + Mut), CSAD [5]: 0.25
- log2 fd versus Contr (PEN + Mut), DNASE1L2 [5]: 0.42
- log2 fd versus Contr (PEN + Mut), LOC619207 [5]: 0.36
- log2 fd versus Contr (PEN + Mut), NEIL1 [5]: 0.30
- log2 fd versus Contr (PEN + Mut), PRKXP1 [5]: 0.62
- log2 fd versus Contr (PEN + Mut), SSPO [5]: 0.99

Molecule: Ac-MSRRKQAKPQ-NH2 [Peptide 3]
- IC50 [1]: 800 nM

Molecule: Ac-MSARAQAKPQHI-NH2 (N-terminus and C-terminus assumed) [MUT]
- increase in PTEN expression compared to untreated cells [7]: no significant change
- effect on cell number [4]: does not

Molecule: Ac-SRRKQAKPQHI-NH2 [Peptide 5]
- IC50 [1]: 600 nM
